# Reference: patent publication US11013786B2, “Therapy” (SELECTIMMUNE PHARMA AB, priority 2015, dated 2021)
# “Also recorded” adds a separate entry of the source. Peptide text beside a SMILES is read from it. * marks the point of attachment. Cbz = O=C(OCc1ccccc1)*; CH2F = FC*
# Assays:
# [1] = tested on: IL-1β processing; assay: IL-1β processing in infected human bladder epithelial cells with caspase inhibition (Western blot); format: cell-based; conditions: human bladder epithelial cells infected with acute cystitis strains, 4 h, pre-incubated with inhibitor 100 μM, 30 min
# Description: Cells were cultured as described above, but in particular in 6-well plates (7×10^5 cells/well, Thermo Fisher Scientific), lysed with RIPA lysis buffer, supplemented with protease and phosphatase inhibitors (Roche Diagnostics). They may then be fractionated using NE-PER Nuclear and Cytoplasmic extraction reagents (Thermo Scientific). For Caspase inhibition, cells were pre-incubated with Z-VAD(OMe)-FMK (#BML-P416-0001, Enzo Life Science, 100 μM, 30 min). Supernatants were filtered and concentrated by trichloroacetic acid precipitation, followed by acetone desiccation. […] Bands were quantified by ImageJ. […]
# Cell lysates and supernatants from infected cells were subjected to Western blot analysis, with antibodies specific for IL-1β. Two fragments of approximately 29 kDa and 16-18 kDa were detected, corresponding to the N-terminal pro-piece and mature IL-1β.
# [2] = tested on: Asc^−/− mice infected with E. coli CFT073; assay: Acute cystitis immunotherapy in the experimental urinary tract infection model (Asc−/− mice infected with E. coli CFT073); format: in vivo; conditions: for macroscopic bladder pathology, edema and hyperemia: vs untreated
# [3] = tested on: IL-1β; assay: IL-1β in urine of treated infected Asc−/− mice (Western blot analysis of urine samples); format: in vivo; conditions: CFT073, IL-1RA (Anakinra) 1 mg i.p. daily
# Description: IL-1β, IL-6 and IL-8 concentrations in filtered supernatants (Syringe Filter w/0.2 um PES, VWR) were determined by Immulite 1000 (Siemens) and Il-1β concentrations in cell supernatants or urine by Human or Mouse Il-1b/IL-1F2 DuoSet ELISA kits (R&D Systems). Urine MMP-7 levels were quantified with Human total MMP-7 Immunoassay Quantikine® ELISA (R&D Systems).
# Cells were cultured as described above, but in particular in 6-well plates (7×10^5 cells/well, Thermo Fisher Scientific), lysed with RIPA lysis buffer, supplemented with protease and phosphatase inhibitors (Roche Diagnostics). They may then be fractionated using NE-PER Nuclear and Cytoplasmic extraction reagents (Thermo Scientific). For Caspase inhibition, cells were pre-incubated with Z-VAD(OMe)-FMK (#BML-P416-0001, Enzo Life Science, 100 μM, 30 min). Supernatants were filtered and concentrated by trichloroacetic acid precipitation, followed by acetone desiccation. […] Bands were quantified by ImageJ.
# To address the contribution of MMP-7 to pathology, Asc^−/− mice were also treated with an MMP inhibitor (Batimastat), (0.5 mg in 100 μl of PBS i.p. 30 minutes before, first three and last three days of infection, FIG. 6A). […] By immunohistochemistry, some retention of unprocessed IL-1β in bladder tissue was detected, consistent with the need for MMP-7 and IL-1R to secrete mature IL-1β.
# [4] = CFT073, Anakinra 1 mg i.p. daily, 7 days
compound,measurement,setting,value
"COC(=O)C[C@H](NC(=O)[C@H](C)NC(=O)[C@@H](NC(=O)OCc1ccccc1)C(C)C)C(=O)CF [Z-VAD, Z-VAD(OMe)-FMK] (Cbz-Val-Ala-Asp(OMe)-CH2F)",inhibition of IL-1β processing,[1],about 20%
"Anakinra: IL-1 receptor antagonist, Anakinra (Kineret, SOBI)",mucosal integrity,[2]; [4],maintained
same,mucosal neutrophil infiltrate,[2]; [4],prevented
same,urine neutrophil numbers,"[2]; CFT073, Anakinra 1 mg i.p. daily, 7 days after infection",low
same,pathology in bladder tissue sections,"[2]; CFT073, Anakinra 1 mg i.p. daily, 7 days, H&E",marked reduction
same,"macroscopic bladder pathology, edema and hyperemia",[2]; [4],protected
same,"macroscopic bladder pathology, edema and hyperemia","[2]; CFT073, Anakinra 1 mg i.p. daily, 7 days, listed as IL-1RA",prevented
same,bacterial counts,"[2]; CFT073, Anakinra 1 mg i.p. daily, urine, 7 days after infection",remained elevated
same,therapeutic effect / protection from acute cystitis,"[2]; E. coli CFT073, Anakinra 1 mg in 100 μl PBS i.p. 30 min before and daily after infection, 7 days, vs untreated Asc−/− mice",dramatic therapeutic effect; also recorded: protects; also recorded: prevented
same,mature IL-1β in urine,[3],loss
